Reference: patent publication US20230114728A1 (Venatorx Pharmaceuticals, Inc., priority 2019, published 2023)
In brackets after ≈: the same amount, converted by molar mass.

Assays:
Assay in all cases: Broth microdilution MIC in iron-depleted CAMHB (IDM)
Type in all cases: cell-based
A. baumannii ATCC 17978 = settings: Acinetobacter baumannii, ATCC17978, read-out: Minimum Inhibitory Concentration, ATCC 17978
Outline: (§1)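 CLSI broth microdilution in iron-depleted CAMHB (Chelex 100-treated, Ca, Mg and 10 μM Zn re-added, pH 7.3). Inoculum was 2-8×10^5 CFU/mL from 3-5 h IDM cultures. Plates were incubated at 37° C for 20-24 h (Acinetobacter) or 16-20 h (Pseudomonas), and MIC was read visually as the lowest concentration without growth.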

A. baumannii ATCC 19606 = settings: Acinetobacter baumannii, ATCC19606, read-out: Minimum Inhibitory Concentration, ATCC 19606
Outline: as §1

[1] = test system: A. baumannii CDC-0033 producing NDM-1, and OXA-94; settings: Acinetobacter baumannii, read-out: Minimum Inhibitory Concentration, CDC-0033
Outline: as §1

[2] = test system: A. baumannii CDC-0036 OXA-65, and OXA-24; settings: Acinetobacter baumannii, read-out: Minimum Inhibitory Concentration, CDC-0036
Outline: as §1

[3] = test system: A. baumannii CDC-0083 producing NDM-1, PER-7, OXA-23, and OXA-69; settings: Acinetobacter baumannii, read-out: Minimum Inhibitory Concentration, CDC-0083
Outline: as §1

[4] = test system: A. baumannii IL123 (ABΔ3-ARAEcPore); settings: Acinetobacter baumannii, read-out: Minimum Inhibitory Concentration, IL-2123
Outline: as §1

[5] = test system: P. aeruginosa (ΔmexAB-oprM); settings: Pseudomonas aeruginosa, read-out: Minimum Inhibitory Concentration, P. aeruginosa ΔmexAB-OprM
Outline: as §1

[6] = test system: P. aeruginosa CDC-0054 producing VIM-4, OXA-50, and PAO; settings: Pseudomonas aeruginosa, read-out: Minimum Inhibitory Concentration, P. aeruginosa CDC-0054
Outline: as §1

[7] = test system: P. aeruginosa CDC-0090 producing KPC-5, OXA-50, and PAO; settings: Pseudomonas aeruginosa, read-out: Minimum Inhibitory Concentration, P. aeruginosa CDC-0090
Outline: as §1

Row | SMILES | MIC (A. baumannii ATCC 17978) [µg/mL] | MIC (A. baumannii ATCC 19606) [µg/mL] | MIC [1] [µg/mL] | MIC [2] [µg/mL] | MIC [3] [µg/mL] | MIC [4] [µg/mL] | MIC [5] [µg/mL] | MIC [6] [µg/mL] | MIC [7] [µg/mL]
1 | O=C(Nc1ccc(O)c(O)c1Cl)NC(C(=O)N[C@H]1Cc2ccc(F)c(C(=O)O)c2OB1O)c1ncc(O)cc1F (stereo partly drawn) [Example 9, (3R)-3-(2-(3-(2-chloro-3,4-dihydroxyphenyl)ureido)-2-(3-fluoro-5-hydroxypyridin-2-yl)acetamido)-7-fluoro-2-hydroxy-3,4-dihydro-2H-benzo[e][1,2]oxaborinine-8-carboxylic acid] | 32 to 64 (≈ 55.3 to 111 µM) | 32 to 64 (≈ 55.3 to 111 µM) | 32 to 64 (≈ 55.3 to 111 µM) | 32 to 64 (≈ 55.3 to 111 µM) | 32 to 64 (≈ 55.3 to 111 µM) | 32 to 64 (≈ 55.3 to 111 µM) | 0.5 to 1 (≈ 0.864 to 1.73 µM) | 32 to 64 (≈ 55.3 to 111 µM) | 32 to 64 (≈ 55.3 to 111 µM)
2 | O=C(NC(C(=O)N[C@H]1Cc2ccc(F)c(C(=O)O)c2OB1O)c1ncc(O)cc1F)c1c(F)cc(O)c(O)c1Cl (stereo partly drawn) [Example 10, (3R)-3-(2-(2-chloro-6-fluoro-3,4-dihydroxybenzamido)-2-(3-fluoro-5-hydroxypyridin-2-yl)acetamido)-7-fluoro-2-hydroxy-3,4-dihydro-2H-benzo[e][1,2]oxaborinine-8-carboxylic acid] | 32 to 64 (≈ 55 to 110 µM) | 32 to 64 (≈ 55 to 110 µM) | 32 to 64 (≈ 55 to 110 µM) | 32 to 64 (≈ 55 to 110 µM) | 32 to 64 (≈ 55 to 110 µM) | 32 to 64 (≈ 55 to 110 µM) | 0.5 to 1 (≈ 0.86 to 1.72 µM) | 2 to 4 (≈ 3.44 to 6.88 µM) | 0.5 to 1 (≈ 0.86 to 1.72 µM)
3 | CCN1CCN(C(=O)NC(C(=O)N[C@H]2Cc3ccc(F)c(C(=O)O)c3OB2O)c2c(F)cc(O)c(O)c2F)C(=O)C1=O (stereo partly drawn) [Example 36, (3R)-3-(2-(2,6-difluoro-3,4-dihydroxyphenyl)-2-(4-ethyl-2,3-dioxopiperazine-1-carboxamido)acetamido)-7-fluoro-2-hydroxy-3,4-dihydro-2H-benzo[e][1,2]oxaborinine-8-carboxylic acid] | 0.25 (≈ 0.421 µM) | 0.25 (≈ 0.421 µM) | 0.5 to 1 (≈ 0.841 to 1.68 µM) | 0.5 to 1 (≈ 0.841 to 1.68 µM) | 0.25 (≈ 0.421 µM) | 0.5 to 1 (≈ 0.841 to 1.68 µM) | 0.25 (≈ 0.421 µM) | 0.5 to 1 (≈ 0.841 to 1.68 µM) | 0.5 to 1 (≈ 0.841 to 1.68 µM)
4 | O=C(O)c1c(F)ccc2c1OB(O)[C@@H](NC(=O)C(NC(=O)N1CCN(CCF)C(=O)C1=O)c1c(F)cc(O)c(O)c1F)C2 (stereo partly drawn) [Example 37, (3R)-3-(2-(2,6-difluoro-3,4-dihydroxyphenyl)-2-(4-(2-fluoroethyl)-2,3-dioxopiperazine-1-carboxamido)acetamido)-7-fluoro-2-hydroxy-3,4-dihydro-2H-benzo[e][1,2]oxaborinine-8-carboxylic acid] | 0.25 (≈ 0.408 µM) | 0.25 (≈ 0.408 µM) | 2 to 4 (≈ 3.27 to 6.53 µM) | 2 to 4 (≈ 3.27 to 6.53 µM) | 0.5 to 1 (≈ 0.817 to 1.63 µM) | 2 to 4 (≈ 3.27 to 6.53 µM) | 0.25 (≈ 0.408 µM) | 2 to 4 (≈ 3.27 to 6.53 µM) | 2 to 4 (≈ 3.27 to 6.53 µM)
5 | O=C(O)c1c(F)ccc2c1OB(O)[C@@H](NC(=O)C(NC(=O)N1CCN(CCBr)C(=O)C1=O)c1c(F)cc(O)c(O)c1F)C2 (stereo partly drawn) [Example 38, (3R)-3-(2-(4-(2-bromoethyl)-2,3-dioxopiperazine-1-carboxamido)-2-(2,6-difluoro-3,4-dihydroxyphenyl)acetamido)-7-fluoro-2-hydroxy-3,4-dihydro-2H-benzo[e][1,2]oxaborinine-8-carboxylic acid] | 0.25 (≈ 0.371 µM) | 0.25 (≈ 0.371 µM) | 2 to 4 (≈ 2.97 to 5.94 µM) | 2 to 4 (≈ 2.97 to 5.94 µM) | 0.5 to 1 (≈ 0.743 to 1.49 µM) | 2 to 4 (≈ 2.97 to 5.94 µM) | 0.25 (≈ 0.371 µM) | 8 to 16 (≈ 11.9 to 23.8 µM) | 2 to 4 (≈ 2.97 to 5.94 µM)
6 | CCN1CCN(C(=O)NC(C(=O)N[C@H]2Cc3ccc(F)c(C(=O)O)c3OB2O)c2cc(F)c(O)c(O)c2Cl)C(=O)C1=O (stereo partly drawn) [Example 42, (3R)-3-(2-(2-chloro-5-fluoro-3,4-dihydroxyphenyl)-2-(4-ethyl-2,3-dioxopiperazine-1-carboxamido)acetamido)-7-fluoro-2-hydroxy-3,4-dihydro-2H-benzo[e][1,2]oxaborinine-8-carboxylic acid] | 0.25 (≈ 0.409 µM) | 0.25 (≈ 0.409 µM) | 0.5 to 1 (≈ 0.819 to 1.64 µM) | 0.5 to 1 (≈ 0.819 to 1.64 µM) | 0.25 (≈ 0.409 µM) | 0.5 to 1 (≈ 0.819 to 1.64 µM) | 0.25 (≈ 0.409 µM) | 0.5 to 1 (≈ 0.819 to 1.64 µM) | 0.25 (≈ 0.409 µM)
